Among the data in ChEMBL document CHEMBL4725322, “New 30-norlupane derivatives through chemical-microbial semi-synthesis of betulinic acid and their neuroprotective effect” (Bioorg Med Chem Lett, 2020) are EC50 and viability values, retold here.

Structures are written as SMILES. pEC50: −log10 of the molar value.

Test [1] concerns PC-12. Briefly: Neuroprotective activity against CoCl2-induced neuronal injury in rat PC-12 cells assessed as increase in cell viability. It is filed as functional, cell-based. The following applies: for EC50: pc-12; for pEC50: Rattus norvegicus, PC-12, read-out: EC50.
The subject of test [2] is PC-12. Briefly: Neuroprotective activity against CoCl2-induced neuronal injury in rat PC-12 cells assessed as cell viability at 30 uM relative to control. It is filed as functional. The following applies: read-out: Activity.

Consider `CC(=O)[C@@H]1CC[C@]2(C(=O)O)C[C@H](O)[C@]3(C)[C@H](CC[C@@H]4[C@@]5(C)CC[C@H](O)C(C)(C)[C@@H]5C[C@H](O)[C@]43C)[C@@H]12`, for which, in the test on PC-12 [1], the EC50 result is reported as “Not Active”. Also, the viability at 30 µM in the test with PC-12 [2] is 99.4%.
As to `CC(=O)[C@@H]1CC[C@]2(C(=O)O)CC[C@]3(C)[C@H](CC[C@@H]4[C@@]5(C)CC[C@H](O)[C@@](C)(CO)[C@@H]5C[C@H](O)[C@]43C)[C@@H]12`, the EC50 result in the test with PC-12 [1] is given as “Not Active”. Also, the viability at 30 µM in the test on PC-12 [2] was 110%.
A word on the pEC50: it is the EC50 on a negative log10 scale, so that one unit is a factor of ten. As to `CC(=O)[C@@H]1CC[C@]2(C(=O)O)CC[C@]3(C)[C@H](C[C@@H](O)[C@@H]4[C@@]5(C)CCC(=O)C(C)(C)[C@@H]5CC[C@]43C)[C@@H]12`, in the test with PC-12 [1], the negative logarithm of the EC50 (pEC50) is 8.00. The viability at 30 µM in the test on PC-12 [2] stood at 102%.
Take `CC(=O)[C@@H]1CC[C@]2(C(=O)O)CC[C@]3(C)[C@H](CC[C@@H]4[C@@]5(C)CCC(=O)C(C)(C)[C@@H]5C[C@H](O)[C@]43C)[C@@H]12`: the EC50 result in the test with PC-12 [1] is “Not Active”. Moreover, the viability at 30 µM with PC-12 [2] amounted to 96%.
On to `CC(=O)[C@@H]1CC[C@]2(C(=O)O)CC[C@]3(C)[C@H](CC[C@@H]4[C@@]5(C)CC[C@H](O)C(C)(C)[C@@H]5C[C@H](O)[C@]43C)[C@@H]12`, for which, in the test with PC-12 [1], the EC50 entry is recorded as “Not Active”. In addition, the viability at 30 µM in the test with PC-12 [2] amounted to 105%.
In the case of `OC[C@H]1O[C@@H](OCCc2ccc(O)cc2)[C@H](O)[C@@H](O)[C@@H]1O` [SALIDROSIDE], the viability at 30 µM in the test with PC-12 [2] was determined as 99.2%.
Regarding `CC(=O)[C@@H]1CC[C@]2(C(=O)O)CC[C@]3(C)[C@H](C[C@@H](O)[C@@H]4[C@@]5(C)CCC(=O)C(C)(C)[C@@H]5C[C@H](O)[C@]43C)[C@@H]12`, the EC50 entry with PC-12 [1] was “Not Active”. Further, the viability at 30 µM with PC-12 [2] came to 105%.
For `CC(=O)[C@@H]1CC[C@]2(C(=O)O)C[C@H](O)[C@]3(C)[C@H](CC[C@@H]4[C@@]5(C)CCC(=O)C(C)(C)[C@@H]5C[C@H](O)[C@]43C)[C@@H]12`, in that order: “Not Active” and 104%.
Regarding `CC(=O)[C@@H]1CC[C@]2(C(=O)O)CC[C@]3(C)[C@H](CC[C@@H]4[C@@]5(C)CC[C@H](O)C(C)(C)[C@@H]5CC[C@]43C)[C@@H]12` [PLATANIC ACID], the pEC50 in the test with PC-12 [1] was 6.77. The viability at 30 µM with PC-12 [2] came to 96.8%.
